Test results: US7390790B2, “Ring-substituted diphenylazetidinones, process for their preparation, medicaments comprising these compounds, and their use” (Sanofi-Aventis Deutschland GmbH, priority 2002, dated 2008)

Test system: cholesterol absorption
Test: Cholesterol absorption test: uptake of 14C-cholesterol by the liver
Assay type: in vivo, mouse
Details: dose at which the uptake of 14C-cholesterol by the liver was halved (50%), based on a control group; peroral test substance immediately prior to 14C-cholesterol test meal; interpolated from dose-effect curve
From the text: Effect of the compounds of the invention on cholesterol absorption and 3H-taurocholic acid excretion using fecal excrement of mice, rats or hamsters
NMRI mice, Wistar rats, or Golden Syrian hamsters (in groups of n=4-6) were kept in metabolic cages, where they were fed with a standard diet (Altromin, Lage (Lippe)). The afternoon prior to the administration of the radioactive tracers (14C-cholesterol), the feed was removed and the animals were adapted to grates.
Additionally, the animals were labeled s.c. with 3H-TCA (taurocholic acid) (for example 1 μCi/mouse up to 5 μCi/rat) 24 hours prior to the peroral administration of the test meal (14C-cholesterol in Intralipid® 20, Pharmacia-Upjohn).
Cholesterol absorption test: 0.25 ml/mouse Intralipid® 20 (Pharmacia-Upjohn) ((spiked with 0.25 μCi of 14C-cholesterol in 0.1 mg of cholesterol) was administered perorally by gavage.
Test substances were prepared separately in 0.5% methylcellulose (Sigma)/5% Solutol (BASF, Ludwigshafen) or a suitable vehicle.
The administration volume of the test substance was 0.5 ml/mouse. The test substance was administered immediately prior to the test meal (Intralipid labeled with 14C-cholesterol) (cholesterol absorption test).
The feces were collected over a period of 24 h. Fecal elimination of 14C-cholesterol and 3H-taurocholic acid (TCA) was determined after 24 hours.
The livers were removed and homogenized, and aliquots were incinerated in an oximate (Model 307, Packard) to determine the amount of 14C-cholesterol that had been taken up/absorbed.
The amount of ^14C-cholesterol taken up by the liver was based on the administered dose. The ED50 values were interpolated from a dose-effect curve as the dose at which the uptake of 14C-cholesterol by the liver was halved (50%), based on a control group.

O=C(Cc1ccc(C[N+]23CCN(CC2)CC3)cc1)NCc1ccc(C2C(CCC(O)c3ccc(F)cc3)C(=O)N2c2ccc(F)cc2)cc1.O=C([O-])C(F)(F)F (stereo not drawn) [Example XV, 1-{4-[(4-{1-(4-Fluorophenyl)-3-[3-(4-fluorophenyl)-3-hydroxypropyl]-4-oxoazetidin-2-yl}-benzylcarbamoyl)-methyl]-benzyl}-4-aza-1-azoniabicyclo[2.2.2]octane trifluoroacetate]
ED50 (liver): <1.0 mg/mouse

O=C1C(CCC(O)c2ccc(F)cc2)C(c2ccc(OCc3ccc(C[N+]45CCN(CC4)CC5)cc3)cc2)N1c1ccc(F)cc1.[Br-] (stereo not drawn) [Example IV, 1-[4-(4-{1-(4-Fluorophenyl)-3-[3-(4-fluorophenyl)-3-hydroxypropyl]-4-oxoazetidin-2-yl}phenoxymethyl)benzyl]-4-aza-1-azoniabicyclo[2.2.2]octane bromide]
ED50 (liver): <0.1 mg/mouse

O=C1C(CCC(O)c2ccc(F)cc2)C(c2ccc(OCc3cccc(CNCC(O)C(O)C(O)C(O)CO)c3)cc2)N1c1ccc(F)cc1 (stereo not drawn) [IX, 1-(4-Fluorophenyl)-3-[3-(4-fluorophenyl)-3-hydroxypropyl]-4-(4-{3-[(2,3,4,5,6-pentahydroxyhexylamine)methyl]benzyloxy}phenyl)azetidin-2-one]
ED50 (liver): <0.1 mg/mouse

COc1ccc(C2C(CCC(O)c3ccc(F)cc3)C(=O)N2c2ccc(CNC(=O)c3ccc(Oc4ccc(C(=O)NCC(O)C(O)C(O)C(O)CO)cc4)cc3)cc2)cc1 (stereo not drawn) [Example I, 2,3,4,5,6-Pentahydroxyhexylamide of 4-(4-{4-[3-[3-(4-fluorophenyl)-3-hydroxypropyl]-2-(4-methoxyphenyl)-4-oxoazetidin-1-yl]benzylcarbamoyl}phenoxy)benzoic acid]
ED50 (liver): <0.1 mg/mouse

O=C1C(CCC(O)c2ccc(F)cc2)C(c2ccc(OCc3ccccc3CNCC(O)C(O)C(O)C(O)CO)cc2)N1c1ccc(F)cc1 (stereo not drawn) [VII, 1-(4-Fluorophenyl)-3-[3-(4-fluorophenyl)-3-hydroxypropyl]-4-(4-{2-[(2,3,4,5,6-pentahydroxyhexylamine)methyl]benzyloxy}phenyl)azetidin-2-one]
ED50 (liver): <1.0 mg/mouse

O=C1C(CCC(O)c2ccc(F)cc2)C(c2ccc(OCc3ccc(CNCC(O)C(O)C(O)C(O)CO)cc3)cc2)N1c1ccc(F)cc1 (stereo not drawn) [Example V, 1-(4-Fluorophenyl)-3-[3-(4-fluorophenyl)-3-hydroxypropyl]-4-(4-{4-[(2,3,4,5,6-pentahydroxyhexylamine)methyl]benzyloxy}phenyl)azetidin-2-one]
ED50 (liver): <0.1 mg/mouse

O=C1C(CCC(O)c2ccc(F)cc2)C(c2ccc(OCc3ccccc3C[N+]34CCN(CC3)CC4)cc2)N1c1ccc(F)cc1.[Br-] (stereo not drawn) [VI, 1-[2-(4-{1-(4-Fluorophenyl)-3-[3-(4-fluorophenyl)-3-hydroxypropyl]-4-oxoazetidin-2-yl}phenoxymethyl)benzyl]-4-aza-1-azoniabicyclo[2.2.2]octane bromide]
ED50 (liver): 0.3 mg/mouse

O=C1C(CCC(O)c2ccc(F)cc2)C(c2ccc(OCc3cccc(C[N+]45CCN(CC4)CC5)c3)cc2)N1c1ccc(F)cc1.[Br-] (stereo not drawn) [VIII, 1-[3-(4-{1-(4-Fluorophenyl)-3-[3-(4-fluorophenyl)-3-hydroxypropyl]-4-oxoazetidin-2-yl}phenoxymethyl)benzyl]-4-aza-1-azoniabicyclo[2.2.2]octane bromide]
ED50 (liver): <1.0 mg/mouse

O=C(NCc1ccc(N2C(=O)C(CCC(O)c3ccccc3)C2c2ccccc2)cc1)c1ccc(Oc2ccc(C(=O)NCC(O)C(O)C(O)C(O)CO)cc2)cc1 (stereo not drawn) [Example II, 2,3,4,5,6-Pentahydroxyhexylamide of 4-(4-{4-[3-(3-hydroxy-3-phenylpropyl)-2-oxo-4-phenylazetidin-1-yl]benzylcarbamoyl}phenoxy)benzoic acid]
ED50 (liver): <1.0 mg/mouse
